How the values were obtained:
human HDACs = assay: Fluorescence histone deacetylation assay with HeLa cell nuclear extract; assay type: biochemical
Protocol: To evaluate this in vitro, the deacetylation of a fluorescent peptide substrate was measured in the presence of human HDACs.
In vitro HDAC activity assays were performed using a fluorescence HDAC assay kit (Active Motif) according to the manufacturer's instructions. For maintaining compound solubility at 5 mM, the final DMSO concentration in all assay wells was increased to 5%. Fluorescence was detected using an M5 Plate Reader ([…])

kidney field = assay: In situ hybridization for kidney markers (pax2a, pax8, cdh17, wt1a, slc4a4, slcl2a1); assay type: in vivo, zebrafish; conditions: 3 μM
Protocol: PTBA was synthesized as described below. Hydroxyurea and aphidicolin were obtained from Sigma-Aldrich.
(§1) In situ hybridization and immunocytochemistry: In situ hybridization was performed as previously described with some modifications.142 Hybridization temperature was 65° C. Embryos were blocked in 2% blocking reagent (Roche) with 5% sheep serum in MAB (100 mM maleic acid and 150 mM NaCl [pH 7.5]). Whole-mount immunocytochemistry with 1:25 mouse anti-α6F antibody (Developmental Studies Hybridoma Bank) and 1:100 Cy3 secondary antibody (Jackson ImmunoResearch) was performed as described previously.108 Embryos were embedded in JB-4 for sectioning per the manufacturer's instructions (Polysciences), sectioned at 5 μm, and mounted with Cytoseal 60 (Richard-Allan Scientific).

zebrafish embryos = assay: Phenotypic screen for edema and survival in zebrafish larvae at 72 hpf
Procedure, shortened: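 Embryos (5/well in primary screen; 12–30 per group otherwise) exposed from 2 hpf in E3 medium with 0.5% DMSO, 10 μM in screen or stated concentrations, 28.5 °C for 70 h. At 72 hpf, edema scored by phenotype classification (dominant phenotype in ≥4/5 embryos in screen); survival vs 0 μM by two-tailed Fisher's exact test (p<0.05).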

[1] = test system: RA-responsive genes, cyp26a1 and cmlc2; assay: In situ hybridization for RA-responsive genes cyp26a1 and cmlc2 in 18-somite embryos; assay type: in vivo, zebrafish; conditions: 3 μM
Protocol: as §1
HDACis are believed to lower the threshold of RA necessary to activate transcription. If PTBA treatment facilitates activation of the RA pathway, then expression of genes responsive to RA signaling should change. […] In a previous study, cmlc2 expression was assessed for RAdependent effects in 18-somite embryos (Keegan, B. R., Feldman, J. L., Begemann, G., Ingham, P. W. & Yelon, D. Retinoic acid signaling restricts the cardiac progenitor pool. Science 307, 247-249, (2005)), therefore embryos were collected at the 18-somite stage for continuity. […]

[2] = number of larvae (of 36), 3 μM from 2 hpf, scored at 72 hpf

## O=C(O)CCCSc1ccccc1 [UPHD-00020, 4-(phenylthio)butanoic acid (PTBA)]
Human HDACs; 5 mM compound
  HDAC activity elicited by 10 μg HeLa extract, percent of the control value: 30%
Human HDACs; millimolar concentrations
  reduction of HDAC activity: 70%
Kidney field; 48 hpf
  expansion of slc4a4 (proximal tubule): 92%
Kidney field; treatment beginning at 16.5 hpf (15 somites)
  pax2a expression at 24 hpf: no kidney field expansion
Kidney field; treatment initiated between 2 hpf and 14 hpf (10 somites)
  pax2a expression at 24 hpf: expanded pax2a expression
Zebrafish embryos; 3 μM PTBA, 25 μM PBA, 200 nM TSA
  larvae with edemic phenotype / pericardial edema by 72 hpf: 92%
Zebrafish embryos; 10 μM, larvae at 72 hpf
  phenotype in initial chemical screen: pericardial edema
Zebrafish embryos; 10 μM, n=90
  survival to 72 hpf: died before 72 hpf
Zebrafish embryos; [2]
  Dead: 1
  Edemic 1 (E1): 13
  Edemic 2 (E2): 17
  Edemic 3 (E3): 5
  Wild-type (WT): 0
[1]
  cmlc2 expression decreased, percent of treated embryos: 100%
  cyp26a1 expression increased, percent of treated embryos: 100%

Source: US10160705B2, “Class of HDAC inhibitors expands the renal progenitor cells population and improves the rate of recovery from acute kidney injury” (University of Pittsburgh—Of the Commonwealth System of …, priority 2011, dated 2018)
